The values that follow come from ChEMBL document CHEMBL1124117, “Coupling products of amino acids to penicillin V and cephalothin: synthesis and susceptibility to carboxypeptidases and lysosomal enzymes” (J Med Chem, 1988).

Series [1] can be described thus: Half-life of compound in acetate buffer (pH 4.5). Type of series: ADME.
Series [2] is described as follows: Half-life of compound in the presence of lysosomal enzymes in the acetate buffer. It counts as ADME.

Molecules are shown by their SMILES.

As a reminder, the half-life is how long it takes for the measured level to halve. Regarding `CC(=O)OCC1=C(C(=O)NC(CC(C)C)C(=O)O)N2C(=O)[C@@H](NC(=O)Cc3cccs3)[C@H]2SC1` (stereo partly drawn), the results for the half-life in series [1] and in series [2] were 41 h and 0.8 h, respectively.
The corresponding values for `CC1(C)S[C@@H]2[C@H](NC(=O)COc3ccccc3)C(=O)N2[C@H]1C(=O)N[C@@H](Cc1ccc(O)cc1)C(=O)O` are 7 h and 7 h.
The corresponding values for `CC(=O)OCC1=C(C(=O)O)N2C(=O)[C@@H](NC(=O)Cc3cccs3)[C@H]2SC1` [CEPHALOTHIN] are 29 h and 1.1 h.
The corresponding values for `CC1(C)S[C@@H]2[C@H](NC(=O)COc3ccccc3)C(=O)N2[C@H]1C(=O)O` [PENICILLIN V] are 17 h and 14 h.
